For 37 molecules, IC50 results are on record in US10562898B2, “Substituted benzenesulfonamides as inhibitors of alpha-4 beta-7 integrin activity” (EA PHARMA CO., LTD., priority 2016, dated 2020).

The structures appear in SMILES notation.

This test deals with T1, α4β1 integrin (Homo sapiens, UniProt P05556+P13612).
T1 construct: a cell line Jurkat, which is known to express α4β1 integrin; endogenous in cells; host or cells: Jurkat (human T cell line)
Description: VCAM-1/α4β1 integrin binding inhibitory activity evaluation test (Jurkat cells binding to VCAM-1/Fc). The class given is cell-based. The following applies: recombinant human VCAM-1/Fc. As for the experimental part: (1) VCAM-1/α4β1 Integrin Binding Inhibitory Activity Evaluation Test
Each test substance was measured in terms of an ability to inhibit the VCAM-1 binding of a human T cell line, namely, a cell line Jurkat, which is known to express α4β1 integrin.
A solution of recombinant human VCAM-1/Fc (R&D Systems, Inc.) (1 μg/mL) diluted with a buffer A (carbonate buffer, pH 9.6) was placed in an amount of 50 μL/well in a 96-well microtiter plate, followed by incubation at 4° C. overnight. After the plate was washed with PBS once, 150 μL/well of Block Ace (Snow Brand Milk Products Co., Ltd.) was added, followed by incubation at room temperature for 2 hours. After removal, the plate was washed with PBS once.
Then, 100 μL of the Jurkat cells (2×10^6 cells/mL) and 100 μL of the test substance at each of various concentrations diluted with a binding buffer (DMEM containing 40 mM HEPES, 0.2% BSA, and 4 mM MnCl2) were added to the plate coated with the VCAM-1/Fc (5×10^5 cells/well), followed by incubation at 30° C. for 15 to 60 minutes. After the cells were bound to the wells, the plate was washed with PBS to remove unbound cells. A buffer C (PBS containing 1.5% Triton X-100) was added in an amount 50 μL/well to the plate to lyse the bound Jurkat cells. After 30 μL of a substrate buffer (Promega, CytoTox 96 Non-Radioactive Cytotoxicity Assay) was added to 30 μL of the cell lysate, a reaction was allowed to proceed at room temperature in the dark for 30 minutes. After 30 μL of a stop solution (Promega, CytoTox 96 Non-Radioactive Cytotoxicity Assay) was added to each, and then an absorbance at 490 nm was measured using a plate reader. The absorbance obtained here represents a detection result of an activity of lactate dehydrogenase (LDH) eluted in the supernatant of each well, that is, the absorbance is proportional to the number of Jurkat cells bound to the VCAM-1 and thus remaining on the plate. The test was performed in duplicate. Provided that the absorbance of a well containing no test substance was 100%, a cell binding rate with the test substance at each of the various concentrations was figured out, and a concentration IC50 which brought about 50% binding inhibition was calculated.

T1 sequence (P13612 34-1032): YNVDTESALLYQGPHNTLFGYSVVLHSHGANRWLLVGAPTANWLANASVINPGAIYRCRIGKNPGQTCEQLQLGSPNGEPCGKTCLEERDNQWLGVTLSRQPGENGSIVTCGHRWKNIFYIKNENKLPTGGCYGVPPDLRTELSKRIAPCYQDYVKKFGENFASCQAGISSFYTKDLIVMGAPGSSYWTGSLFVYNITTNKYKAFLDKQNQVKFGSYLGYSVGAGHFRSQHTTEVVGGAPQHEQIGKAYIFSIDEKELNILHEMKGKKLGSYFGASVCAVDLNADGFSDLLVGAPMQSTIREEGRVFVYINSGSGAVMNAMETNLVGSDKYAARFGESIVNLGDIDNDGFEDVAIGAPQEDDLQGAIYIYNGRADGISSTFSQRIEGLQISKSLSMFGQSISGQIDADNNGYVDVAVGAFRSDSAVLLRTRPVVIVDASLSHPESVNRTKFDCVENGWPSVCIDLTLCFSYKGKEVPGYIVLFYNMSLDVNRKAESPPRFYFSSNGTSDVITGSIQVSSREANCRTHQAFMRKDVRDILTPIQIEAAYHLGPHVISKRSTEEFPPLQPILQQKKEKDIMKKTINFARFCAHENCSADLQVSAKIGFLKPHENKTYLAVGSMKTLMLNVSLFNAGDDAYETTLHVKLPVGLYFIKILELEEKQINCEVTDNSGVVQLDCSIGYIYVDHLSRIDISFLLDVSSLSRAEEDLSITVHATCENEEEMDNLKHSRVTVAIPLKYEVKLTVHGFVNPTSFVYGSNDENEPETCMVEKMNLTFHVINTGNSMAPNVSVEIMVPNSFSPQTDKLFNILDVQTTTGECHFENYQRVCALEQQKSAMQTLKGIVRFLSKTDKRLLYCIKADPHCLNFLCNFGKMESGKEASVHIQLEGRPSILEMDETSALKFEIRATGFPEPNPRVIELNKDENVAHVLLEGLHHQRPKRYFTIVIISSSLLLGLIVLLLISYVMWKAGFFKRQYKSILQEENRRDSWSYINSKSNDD
T1 sequence (P05556 21-798): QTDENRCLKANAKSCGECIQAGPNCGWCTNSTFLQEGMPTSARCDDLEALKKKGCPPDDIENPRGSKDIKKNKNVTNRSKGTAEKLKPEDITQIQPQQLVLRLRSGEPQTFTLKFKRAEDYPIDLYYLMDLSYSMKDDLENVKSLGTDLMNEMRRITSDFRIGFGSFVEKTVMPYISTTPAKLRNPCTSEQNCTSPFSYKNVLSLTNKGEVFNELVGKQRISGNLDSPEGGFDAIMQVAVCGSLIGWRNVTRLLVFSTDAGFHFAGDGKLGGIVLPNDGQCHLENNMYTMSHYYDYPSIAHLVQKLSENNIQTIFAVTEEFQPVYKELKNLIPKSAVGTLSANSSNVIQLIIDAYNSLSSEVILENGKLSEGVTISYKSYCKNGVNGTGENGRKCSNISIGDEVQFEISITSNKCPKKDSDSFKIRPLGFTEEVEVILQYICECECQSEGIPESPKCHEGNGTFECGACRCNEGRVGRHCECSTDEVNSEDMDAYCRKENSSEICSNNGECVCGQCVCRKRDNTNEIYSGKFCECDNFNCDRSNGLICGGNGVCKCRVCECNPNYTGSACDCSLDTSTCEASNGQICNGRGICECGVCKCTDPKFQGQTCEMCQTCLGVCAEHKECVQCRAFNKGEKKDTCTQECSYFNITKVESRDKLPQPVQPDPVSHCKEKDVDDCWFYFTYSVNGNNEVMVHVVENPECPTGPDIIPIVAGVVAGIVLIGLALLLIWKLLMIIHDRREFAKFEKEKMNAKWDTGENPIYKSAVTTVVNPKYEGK

Regarding `Cn1c(=O)n(-c2ccc(C[C@H](NC(=O)c3cc(F)c(NS(=O)(=O)c4ccc(NC(=O)C(C)(C)C)cc4)cc3F)C(=O)O)cc2)c(=O)c2ccncc21` [Compound A1, (2S)-2-[[4-[[4-(2,2-dimethylpropanoylamino)phenyl]sulfonylamino]-2,5-difluoro-benzoyl]amino]-3-[4-(1-methyl-2,4-dioxo-pyrido[3,4-d]pyrimidin-3-yl)phenyl]propanoic acid], the IC50 – broadly, the concentration that inhibits the measured activity by half – was 440 nM. For `CC(=O)Nc1ccc(S(=O)(=O)Nc2cc(F)c(C(=O)N[C@@H](Cc3ccc(-n4c(=O)c5ccncc5n(C)c4=O)cc3)C(=O)O)cc2F)cc1` [Compound A2], the IC50 was 1100 nM. For `CCC(CC)C(=O)Nc1ccc(S(=O)(=O)Nc2cc(F)c(C(=O)N[C@@H](Cc3ccc(-n4c(=O)c5ccncc5n(C)c4=O)cc3)C(=O)O)cc2F)cc1` [Compound A3] the value was 2400 nM.

For the molecule `CCC(CC)C(=O)Nc1ccc(S(=O)(=O)Nc2cc(F)c(C(=O)N[C@@H](Cc3ccc(-n4c(=O)c(C)c(C)n(C)c4=O)cc3)C(=O)O)cc2F)cc1` [Compound A4], the IC50 came out at 2500 nM. Turning to `Cn1c(=O)n(-c2ccc(C[C@H](NC(=O)c3cc(F)c(NS(=O)(=O)c4ccc(NC(=O)NC(C)(C)C)cc4)cc3F)C(=O)O)cc2)c(=O)c2ccncc21` [Compound A5], the IC50 came to 2000 nM. With `Cn1c(=O)n(-c2ccc(C[C@H](NC(=O)c3cc(F)c(NS(=O)(=O)c4ccc(NC(=O)C5CCNCC5)cc4)cc3F)C(=O)O)cc2)c(=O)c2ccncc21` [Compound A6, (2S)-2-[[2,5-difluoro-4-[[4-(piperidine-4-carbonylamino)phenyl]sulfonylamino]benzoyl]amino]-3-[4-(1-methyl-2,4-dioxo-pyrido[3,4-d]pyrimidin-3-yl)phenyl]propanoic acid], the IC50 amounted to 890 nM. `Cn1c(=O)n(-c2ccc(C[C@H](NC(=O)c3cc(F)c(NS(=O)(=O)c4ccc(NC(=O)c5ccncc5)cc4)cc3F)C(=O)O)cc2)c(=O)c2ccncc21` [Compound A7]: the IC50 amounted to 2000 nM. With `Cc1c(C)n(C)c(=O)n(-c2ccc(C[C@H](NC(=O)c3cc(F)c(NS(=O)(=O)c4ccc(NC(=O)C(C)(C)C)cc4)cc3F)C(=O)O)cc2)c1=O` [Compound A8], the IC50 is 1600 nM. On to `Cn1c(=O)n(-c2ccc(C[C@H](NC(=O)c3cc(F)c(NS(=O)(=O)c4ccc(NC(=O)C(C)(C)C)s4)cc3F)C(=O)O)cc2)c(=O)c2ccncc21` [Compound A9], for which the IC50 came out at 160 nM. With `Cc1c(C)n(C)c(=O)n(-c2ccc(C[C@H](NC(=O)c3cc(F)c(NS(=O)(=O)c4ccc(NC(=O)C(C)(C)C)s4)cc3F)C(=O)O)cc2)c1=O` [Compound A10], the IC50 is 400 nM.

Consider `Cc1c(C)n(C)c(=O)n(-c2ccc(C[C@H](NC(=O)c3cc(F)c(NS(=O)(=O)c4cc(NC(=O)C(C)(C)C)cs4)cc3F)C(=O)O)cc2)c1=O` [Compound A11], for which the IC50 is 3200 nM. As for `Cn1c(=O)n(-c2ccc(C[C@H](NC(=O)c3cc(F)c(NS(=O)(=O)c4ccc(NC(=O)C(C)(C)C)c(F)c4)cc3F)C(=O)O)cc2)c(=O)c2ccncc21` [Compound A12], the figure is 1200 nM; as for `Cn1c(=O)n(-c2ccc(C[C@H](NC(=O)c3cc(F)c(NS(=O)(=O)c4ccc(NC(=O)C5CCOCC5)cc4)cc3F)C(=O)O)cc2)c(=O)c2ccncc21` [Compound A14], 550 nM. As for `Cc1c(C)n(C)c(=O)n(-c2ccc(C[C@H](NC(=O)c3cc(F)c(NS(=O)(=O)c4ccc(NC(=O)C5CCOCC5)cc4)cc3F)C(=O)O)cc2)c1=O` [Compound A15], the figure is 950 nM; as for `COC1(C(=O)Nc2ccc(S(=O)(=O)Nc3cc(F)c(C(=O)N[C@@H](Cc4ccc(-n5c(=O)c6ccncc6n(C)c5=O)cc4)C(=O)O)cc3F)cc2)CC1` [Compound A16], 1200 nM; as for `COC1(C(=O)Nc2ccc(S(=O)(=O)Nc3cc(F)c(C(=O)N[C@@H](Cc4ccc(-n5c(=O)c(C)c(C)n(C)c5=O)cc4)C(=O)O)cc3F)cc2)CC1` [Compound A17], 1300 nM. In the case of `Cn1c(=O)n(-c2ccc(C[C@H](NC(=O)c3cc(F)c(NS(=O)(=O)c4ccc(NC(=O)C(C)(C)CO)cc4)cc3F)C(=O)O)cc2)c(=O)c2ccncc21` [Compound A18], the IC50 is 720 nM. `Cc1c(C)n(C)c(=O)n(-c2ccc(C[C@H](NC(=O)c3cc(F)c(NS(=O)(=O)c4ccc(NC(=O)C(C)(C)C)cn4)cc3F)C(=O)O)cc2)c1=O` [Compound A19]: the IC50 came to 370 nM. In the case of `Cc1c(C)n(C)c(=O)n(-c2ccc(C[C@H](NC(=O)c3cc(F)c(NS(=O)(=O)c4ccc(NC(=O)C5(C(F)(F)F)CC5)cc4)cc3F)C(=O)O)cc2)c1=O` [Compound A20], the 50% inhibitory concentration (IC50) was found to be 850 nM.

Regarding `Cc1c(C)n(C)c(=O)n(-c2ccc(C[C@H](NC(=O)c3cc(F)c(NS(=O)(=O)c4ccc(NC(=O)C(C)(C)CO)cc4)cc3F)C(=O)O)cc2)c1=O` [Compound A21], the IC50 is 680 nM. Regarding `Cc1c(C)n(C)c(=O)n(-c2ccc(C[C@H](NC(=O)c3cc(F)c(NS(=O)(=O)c4ccc(NC(=O)C5(O)CC5)cc4)cc3F)C(=O)O)cc2)c1=O` [Compound A22], the IC50 stood at 830 nM.

For `Cn1c(=O)n(-c2ccc(C[C@H](NC(=O)c3cc(F)c(NS(=O)(=O)c4ccc(NC(=O)C5(O)CC5)cc4)cc3F)C(=O)O)cc2)c(=O)c2ccncc21` [Compound A23], the IC50 was determined as 820 nM.

Turning to `Cn1c(=O)n(-c2ccc(C[C@H](NC(=O)c3cc(F)c(NS(=O)(=O)c4ccc(NC(=O)C5(C(F)(F)F)CC5)cc4)cc3F)C(=O)O)cc2)c(=O)c2ccncc21` [Compound A24], the IC50 is 1400 nM. Consider `Cc1c(C)n(C)c(=O)n(-c2ccc(C[C@H](NC(=O)c3cc(F)c(NS(=O)(=O)c4ccc(NC(=O)C(C)(C)C)nc4)cc3F)C(=O)O)cc2)c1=O` [Compound A25], for which the IC50 stood at 2300 nM. As to `Cn1c(=O)n(-c2ccc(C[C@H](NC(=O)c3cc(F)c(NS(=O)(=O)c4ccc(NC(=O)C(C)(C)C)cc4)cc3F)C(=O)O)cn2)c(=O)c2ccncc21` [Compound A26], the IC50 stood at 4600 nM. With `Cn1c2c(c(=O)n(-c3ccc(C[C@H](NC(=O)c4cc(F)c(NS(=O)(=O)c5ccc(NC(=O)C(C)(C)C)cc5)cc4F)C(=O)O)cc3)c1=O)CCOC2` [Compound A27], the 50% inhibitory concentration (IC50) was found to be 910 nM. Turning to `Cc1c(C)n(C)c(=O)n(-c2ccc(C[C@H](NC(=O)c3cc(F)c(NS(=O)(=O)c4ccc(NC(=O)C(C)(C)C)cc4)cc3F)C(=O)O)cn2)c1=O` [Compound A28], the concentration for half-maximal inhibition (IC50) was determined as 3600 nM. On to `Cn1c(=O)n(-c2ccc(C[C@H](NC(=O)c3cc(F)c(NS(=O)(=O)c4ccc(NC(=O)C5(c6ccccc6)CC5)cc4)cc3F)C(=O)O)cn2)c(=O)c2ccncc21` [Compound A29], for which the IC50 came to 12000 nM. Turning to `Cc1c(C)n(C)c(=O)n(-c2ccc(C[C@H](NC(=O)c3cc(F)c(NS(=O)(=O)c4ccc(NC(=O)C5(c6ccccc6)CC5)cc4)cc3F)C(=O)O)cc2)c1=O` [Compound A30], the IC50 turned out to be 2700 nM. Consider `Cn1c(=O)n(-c2ccc(C[C@H](NC(=O)c3cc(F)c(NS(=O)(=O)c4ccc(NC(=O)C(C)(C)C)cn4)cc3F)C(=O)O)cn2)c(=O)c2ccncc21` [Compound A31], for which the IC50 worked out at 1900 nM. As for `Cc1c(C)n(C)c(=O)n(-c2ccc(C[C@H](NC(=O)c3cc(F)c(NS(=O)(=O)c4ccc(NC(=O)C(C)(C)C)cn4)cc3F)C(=O)O)cn2)c1=O` [Compound A32], the IC50 stood at 4400 nM. With `Cn1c2c(c(=O)n(-c3ccc(C[C@H](NC(=O)c4cc(F)c(NS(=O)(=O)c5ccc(NC(=O)C(C)(C)C)cc5)cc4F)C(=O)O)cc3)c1=O)COCC2` [Compound A33], the IC50 turned out to be 1000 nM.

`Cc1c(C)n(C)c(=O)n(-c2ccc(C[C@H](NC(=O)c3cc(F)c(NS(=O)(=O)c4ccc(-n5ccc(C6CCOCC6)cc5=O)cc4)cc3F)C(=O)O)cc2)c1=O` [Compound A34]: the IC50 came to 3600 nM. For `Cc1c(C)n(C)c(=O)n(-c2ccc(C[C@H](NC(=O)c3cc(F)c(NS(=O)(=O)c4ccc(N(C)C(=O)C(C)(C)C)cc4)cc3F)C(=O)O)cc2)c1=O` [Compound A35], the IC50 was found to be 3800 nM. With `COc1cc2c(=O)n(-c3ccc(C[C@H](NC(=O)c4cc(F)c(NS(=O)(=O)c5ccc(NC(=O)C(C)(C)C)cc5)cc4F)C(=O)O)cc3)c(=O)n(C)c2cn1` [Compound A36], the 50% inhibitory concentration (IC50) turned out to be 1800 nM. Take `Cc1cn(C)c(=O)n(-c2ccc(C[C@H](NC(=O)c3cc(F)c(NS(=O)(=O)c4ccc(NC(=O)C(C)(C)C)cc4)cc3F)C(=O)O)cc2)c1=O` [Compound A37]: the IC50 worked out at 4100 nM. For `CN1C(=O)N(c2ccc(S(=O)(=O)Nc3cc(F)c(C(=O)N[C@@H](Cc4ccc(-n5c(=O)c6ccncc6n(C)c5=O)nc4)C(=O)O)cc3F)cc2)C(=O)C1(C)C` [Compound A38], the IC50 was found to be 4000 nM.
